Data on 18 compounds can be found in PubChem BioAssay AID248 (DTP/NCI, 2004).

Where “and” joins values, the source holds several entries; their conditions need not be identical. Equal entries are not always repeated. Inconclusive results and toxic doses are left out.

The subject of the assay is L1210 leukemia ip in BDF1 mice, survival T/C. Nature of the assay: NCI In Vivo Anticancer Drug Screen. Data for tumor model L1210 Leukemia (intraperitoneal) in B6D2F1 (BDF1) mice. The conditions noted are these: higher = longer survival. A digest of the protocol: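 Value reflects the ratio of survival in compound-treated mice to survival in vehicle-treated controls, with both groups carrying the same transplanted tumor.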

The mark [1] stands for this setting: endpoint: mean survival time, dose: 100.0 mg/kg/injection, schedule: Q01DX009 (ip), vehicle: Klucel (hydroxypropylcellulose) (HPC).
[2] abbreviates: endpoint: mean survival time, dose: 200.0 mg/kg/injection, schedule: Q01DX009 (ip), vehicle: Klucel (hydroxypropylcellulose) (HPC).
Setting [3] is: endpoint: mean survival time, dose: 400.0 mg/kg/injection, schedule: Q01DX009 (ip), vehicle: Klucel (hydroxypropylcellulose) (HPC).
The mark [4] stands for this setting: endpoint: mean survival time, dose: 50.0 mg/kg/injection, schedule: Q01DX009 (ip), vehicle: Klucel (hydroxypropylcellulose) (HPC).
[5] abbreviates: endpoint: mean survival time, dose: 100.0 mg/kg/injection, schedule: Q04DX003 (ip), vehicle: Klucel (hydroxypropylcellulose) (HPC).
[6] abbreviates: endpoint: mean survival time, dose: 200.0 mg/kg/injection, schedule: Q04DX003 (ip), vehicle: Klucel (hydroxypropylcellulose) (HPC).
The mark [7] stands for this setting: endpoint: mean survival time, dose: 400.0 mg/kg/injection, schedule: Q04DX003 (ip), vehicle: Klucel (hydroxypropylcellulose) (HPC).
Setting [8] is: endpoint: mean survival time, dose: 100.0 mg/kg/injection, schedule: Q01DX009 (ip), vehicle: saline with Tween-80.
Setting [9] is: endpoint: mean survival time, dose: 100.0 mg/kg/injection, schedule: Q04DX003 (ip), vehicle: saline with Tween-80.
[10] abbreviates: endpoint: mean survival time, dose: 200.0 mg/kg/injection, schedule: Q01DX009 (ip), vehicle: saline with Tween-80.
The mark [11] stands for this setting: endpoint: mean survival time, dose: 200.0 mg/kg/injection, schedule: Q04DX003 (ip), vehicle: saline with Tween-80.
[12] abbreviates: endpoint: mean survival time, dose: 400.0 mg/kg/injection, schedule: Q01DX009 (ip), vehicle: saline with Tween-80.
Where [13] appears, read: endpoint: mean survival time, dose: 400.0 mg/kg/injection, schedule: Q04DX003 (ip), vehicle: saline with Tween-80.
Setting [14] is: endpoint: mean survival time, dose: 100.0 mg/kg/injection, schedule: Q01DX009 (ip), vehicle: saline.
Setting [15] is: endpoint: mean survival time, dose: 200.0 mg/kg/injection, schedule: Q01DX009 (ip), vehicle: saline.
Where [16] appears, read: endpoint: mean survival time, dose: 400.0 mg/kg/injection, schedule: Q01DX009 (ip), vehicle: saline.

For `COc1cc([N+](=O)[O-])ccc1NC(=O)Oc1cc(C)ccc1C(C)C`, the T/C runs as follows: under setting [1], 103 % of control; under setting [2], 104 % of control; under setting [3], 104 % of control.
For the compound `CC(N)CNc1ccccc1` (stereo unspecified), the T/C by setting is: (endpoint: mean survival time, dose: 12.5 mg/kg/injection, schedule: Q04DX003 (ip), vehicle: water) 105 % of control; (endpoint: mean survival time, dose: 25.0 mg/kg/injection, schedule: Q04DX003 (ip), vehicle: water) 98 % of control; (endpoint: mean survival time, dose: 50.0 mg/kg/injection, schedule: Q04DX003 (ip), vehicle: water) 104 % of control.
As for `C=CCOC(=O)Nc1ccc(S(=O)(=O)N(C)C)cc1`, the T/C is 97 % of control (endpoint: mean survival time, dose: 100.0 mg/kg/injection, schedule: Q01DX001 (ip), vehicle: carboxymethylcellulose (CMC)); 93 % of control (endpoint: mean survival time, dose: 200.0 mg/kg/injection, schedule: Q01DX001 (ip), vehicle: carboxymethylcellulose (CMC)); 97 % of control (endpoint: mean survival time, dose: 400.0 mg/kg/injection, schedule: Q01DX001 (ip), vehicle: carboxymethylcellulose (CMC)).
For `O=C(N/N=C/c1ccco1)C1CCCO1` (stereo unspecified), the T/C was 101 % of control (endpoint: mean survival time, dose: 25.0 mg/kg/injection, schedule: Q01DX009 (ip), vehicle: Klucel (hydroxypropylcellulose) (HPC)); 102 % of control under setting [4]; 101 % of control and 114 % of control under setting [1]; 106 % of control under setting [2].
For `Cc1ccc(N=C(c2ccc([N+](=O)[O-])cc2)c2ccc([N+](=O)[O-])cc2)cc1`, the T/C is 97 % of control under setting [1]; 96 % of control under setting [5]; 96 % of control under setting [2]; 102 % of control under setting [6]; 102 % of control under setting [3]; 96 % of control under setting [7].
Take `CN(C)Cc1ccccc1C(O)(c1ccccc1)c1ccccc1CN(C)C`: the T/C by setting is: (endpoint: mean survival time, dose: 8.0 mg/kg/injection, schedule: Q01DX015 (ip), vehicle: carboxymethylcellulose (CMC)) 91 % of control; (endpoint: mean survival time, dose: 16.0 mg/kg/injection, schedule: Q01DX015 (ip), vehicle: carboxymethylcellulose (CMC)) 90 % of control; (endpoint: mean survival time, dose: 32.0 mg/kg/injection, schedule: Q01DX015 (ip), vehicle: carboxymethylcellulose (CMC)) 88 % of control.
Take `CC1(C)N=C(N)N=C(N)N1c1ccc(OCCCOc2ccccc2)c(Cl)c1`: the T/C is 98 % of control under setting [4], 102 % of control under setting [1], 92 % of control under setting [5] and 91 % of control under setting [6].
On to `CCOc1ccccc1NC(=S)NC(=O)CCc1ccccc1`, for which the T/C is 102 % of control and 104 % of control under setting [8]; 104 % of control (endpoint: mean survival time, dose: 100.0 mg/kg/injection, schedule: Q04DX002 (ip), vehicle: saline with Tween-80); 105 % of control under setting [9]; 93 % of control and 108 % of control under setting [10]; 98 % of control (endpoint: mean survival time, dose: 200.0 mg/kg/injection, schedule: Q04DX002 (ip), vehicle: saline with Tween-80); 97 % of control under setting [11]. Besides, the T/C was 97 % of control and 89 % of control under setting [12]; 91 % of control (endpoint: mean survival time, dose: 400.0 mg/kg/injection, schedule: Q04DX002 (ip), vehicle: saline with Tween-80); 89 % of control under setting [13].
`OC[CH2][Hg][I]`: the T/C is 88 % of control (endpoint: mean survival time, dose: 1.56 mg/kg/injection, schedule: Q01DX009 (ip), vehicle: Klucel (hydroxypropylcellulose) (HPC)) and 93 % of control (endpoint: mean survival time, dose: 6.25 mg/kg/injection, schedule: Q01DX009 (ip), vehicle: Klucel (hydroxypropylcellulose) (HPC)).
On to `COC(=O)C1CNN=C1C(=O)N1Cc2cc3ccccc3nc2C1` (stereo unspecified), for which the T/C was 94 % of control (endpoint: mean survival time, dose: 10.0 mg/kg/injection, schedule: Q04DX003 (ip), vehicle: saline); 97 % of control (endpoint: mean survival time, dose: 20.0 mg/kg/injection, schedule: Q04DX003 (ip), vehicle: saline); 91 % of control (endpoint: mean survival time, dose: 40.0 mg/kg/injection, schedule: Q04DX003 (ip), vehicle: saline); 97 % of control (endpoint: mean survival time, dose: 80.0 mg/kg/injection, schedule: Q04DX003 (ip), vehicle: saline); 99 % of control (endpoint: mean survival time, dose: 160.0 mg/kg/injection, schedule: Q04DX003 (ip), vehicle: saline).
`CCOC(=O)C(N)C(C)(C)S` (stereo unspecified): the T/C is 94 % of control under setting [14]; 96 % of control (endpoint: mean survival time, dose: 100.0 mg/kg/injection, schedule: Q04DX003 (ip), vehicle: saline); 103 % of control under setting [15]; 102 % of control (endpoint: mean survival time, dose: 200.0 mg/kg/injection, schedule: Q04DX003 (ip), vehicle: saline); 100 % of control under setting [16]; 103 % of control (endpoint: mean survival time, dose: 400.0 mg/kg/injection, schedule: Q04DX003 (ip), vehicle: saline).
As for `OCc1ccccc1`, the T/C was 105 % of control under setting [8]; 100 % of control under setting [5]; 102 % of control under setting [10]; 101 % of control under setting [6]; 96 % of control under setting [12]; 98 % of control under setting [7].
Consider `CCCCN(C)N=Nc1ccc(CCC(=O)OCC)cc1`, for which the T/C (endpoint: mean survival time, dose: 72.5 mg/kg/injection, schedule: Q01DX009 (ip), vehicle: saline with Tween-80) was 121 % of control; the T/C (endpoint: mean survival time, dose: 177.0 mg/kg/injection, schedule: Q01DX009 (ip), vehicle: other) was 117 % of control; the T/C (endpoint: mean survival time, dose: 187.0 mg/kg/injection, schedule: Q01DX Z (ip), vehicle: saline) was 117 % of control; the T/C (endpoint: mean survival time, dose: 207.0 mg/kg/injection, schedule: Q01DX001 (ip), vehicle: saline with Tween-80) was 111 % of control; the T/C (endpoint: mean survival time, dose: 266.0 mg/kg/injection, schedule: Q01DX007 (ip), vehicle: saline) was 160 % of control; the T/C (endpoint: mean survival time, dose: 290.0 mg/kg/injection, schedule: Q01DX009 (ip), vehicle: saline with Tween-80) was 171 % of control. Also, the T/C is 171 % of control (endpoint: mean survival time, dose: 400.0 mg/kg/injection, schedule: Q01DX007 (ip), vehicle: saline); 162 % of control (endpoint: mean survival time, dose: 400.0 mg/kg/injection, schedule: Q01DX009 (ip), vehicle: other); 119 % of control (endpoint: mean survival time, dose: 414.5 mg/kg/injection, schedule: Q01DX001 (ip), vehicle: saline with Tween-80); 179 % of control (endpoint: mean survival time, dose: 600.0 mg/kg/injection, schedule: Q01DX009 (ip), vehicle: other); 111 % of control (endpoint: median survival time, dose: 200.0 mg/kg/injection, schedule: Q04DX003 (ip), vehicle: Klucel (hydroxypropylcellulose) (HPC)); 187 % of control (endpoint: median survival time, dose: 800.0 mg/kg/injection, schedule: Q01DX009 (ip), vehicle: saline).
Regarding `CCC(=O)Nc1cc(C)c(C)cc1C`, the T/C by setting is: under setting [1], 100 % of control; under setting [2], 105 % of control.
As for `CCOC(=O)c1cc(OC(C)=O)c2c(ccc3ccccc32)c1C`, the T/C runs as follows: under setting [1], 98 % of control; under setting [2], 88 % of control; under setting [3], 91 % of control.
With `CC(CCC(=O)O)(c1cc(Br)c(O)c(Br)c1)c1cc(Br)c(O)c(Br)c1`, the T/C is, setting by setting: under setting [14], 93 % of control; (endpoint: mean survival time, dose: 100.0 mg/kg/injection, schedule: Q04DX003 (ip), vehicle: other) 102 % of control; under setting [15], 95 % of control; (endpoint: mean survival time, dose: 200.0 mg/kg/injection, schedule: Q04DX003 (ip), vehicle: other) 102 % of control; under setting [16], 87 % of control; (endpoint: mean survival time, dose: 400.0 mg/kg/injection, schedule: Q04DX003 (ip), vehicle: other) 109 % of control.
As to `O=C(O)CCCCCCCCCCCCO`, the T/C under setting [5] is 96 % of control, the T/C under setting [6] was 91 % of control and the T/C under setting [7] is 96 % of control.
Consider `CCC(C(O)c1ccc(F)cc1)C(O)(C(F)(F)F)C(F)(F)F` (stereo unspecified), for which the T/C runs as follows: (endpoint: mean survival time, dose: 50.0 mg/kg/injection, schedule: Q01DX009 (ip), vehicle: other) 93 % of control; (endpoint: mean survival time, dose: 100.0 mg/kg/injection, schedule: Q01DX009 (ip), vehicle: other) 102 % of control; under setting [9], 101 % of control; (endpoint: mean survival time, dose: 200.0 mg/kg/injection, schedule: Q01DX009 (ip), vehicle: other) 98 % of control; under setting [11], 100 % of control; under setting [13], 90 % of control.
